According to patent US10214520B2, “Substituted azaspiro(4.5)decane derivatives” (priority 2014, dated 2019):
Where two headings read alike, the source gives them in different places.

Key:
human μ opiate receptor = human μ opiate receptor (Homo sapiens, UniProt P35372); assay: μ opiate receptor binding assay with [3H]-naloxone, membrane preparation of CHO-K1 cells (WGA-SPA beads)
[1] = mean, read-out: Ki (μ) mean [μm]

Chain of human μ opiate receptor (P35372 whole entry): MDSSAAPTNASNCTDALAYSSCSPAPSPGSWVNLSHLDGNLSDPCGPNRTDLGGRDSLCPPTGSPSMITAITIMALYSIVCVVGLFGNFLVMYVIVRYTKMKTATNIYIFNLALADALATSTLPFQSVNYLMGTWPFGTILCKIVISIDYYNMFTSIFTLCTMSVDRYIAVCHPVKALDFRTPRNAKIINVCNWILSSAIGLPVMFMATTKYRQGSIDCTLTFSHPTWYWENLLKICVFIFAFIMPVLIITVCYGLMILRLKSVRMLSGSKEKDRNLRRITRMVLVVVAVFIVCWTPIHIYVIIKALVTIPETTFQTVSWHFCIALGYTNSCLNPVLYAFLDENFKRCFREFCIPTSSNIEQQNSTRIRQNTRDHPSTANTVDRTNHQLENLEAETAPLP

| SMILES | Ki (human μ opiate receptor; [1]) [µM] | Ki (human μ opiate receptor; read-out: MOP Ki) [µM] | other results |
| --- | --- | --- | --- |
| Cc1ccc(C2(N(C)C)CCC3(CC2)CC(=O)N(C(=O)OC(C)(C)C)C3)s1 (stereo not shown) |  |  | melting point: 165 to 167 °C |
| CN(C)C1(C(=O)c2ccccc2)CCC2(CCN(Cc3ccccc3)C2)CC1 (single isomer, unassigned) [Example No. 70, [3-Benzyl-8-(dimethylamino)-3-azaspiro[4.5]decan-8-yl]-phenylmethanone] | 0.465 |  |  |
| CN(C)C1(C(=O)c2cccs2)CCC2(CCN(Cc3ccccc3)C2)CC1 (single isomer, unassigned) [Example No. 71, [3-Benzyl-8-(dimethylamino)-3-azaspiro[4.5]decan-8-yl]-thiophen-2-ylmethanone] | 0.127 |  |  |
| CN(C)C1(C(=O)c2cccs2)CCC2(CCN(Cc3ccccc3)C2)CC1 (single isomer, unassigned) [Example No. 72, [3-Benzyl-8-(dimethylamino)-3-azaspiro[4.5]decan-8-yl]-thiophen-2-ylmethanone] | 0.805 |  |  |
| CN(C)C1(c2cccs2)CCC2(CCN(Cc3ccncc3)C2=O)CC1 (stereo not shown) [Example 85] | 0.26 |  |  |
| CCCCC1(N(C)C)CCC2(CC1)CC(=O)N(Cc1ccccc1)C2 (stereo not shown) [Example No. 124, 3-Benzyl-8-butyl-8-(dimethylamino)-3-azaspiro[4.5]decan-2-one] | 2.97 |  |  |
| CN(C)[C@]1(c2cnccn2)CC[C@]2(CC1)CC(=O)N(CCCC(N)=O)C2 [SC-1010, Cis-4-(8-Dimethylamino-3-oxo-8-pyrazin-2-yl-2-azaspiro[4.5]decan-2-yl)-butyramide] |  | 0.825 |  |
| CN(C)[C@]1(c2ccccn2)CC[C@]2(CC1)CC(=O)N(CCCC(N)=O)C2 [SC-1013, Cis-4-(8-Dimethylamino-3-oxo-8-pyridin-2-yl-2-azaspiro[4.5]decan-2-yl)-butyramide] |  | 2.43 |  |
| COC(=O)c1ccc(N2C[C@]3(CC[C@@](c4ccccc4)(N(C)C)CC3)CC2=O)cc1 [SC-1074, Cis-4-(8-Dimethylamino-3-oxo-8-phenyl-2-azaspiro[4.5]decan-2-yl)-benzoic acid methyl ester] |  | 0.42 |  |
| CN(C)[C@]1(c2ccccc2)CC[C@]2(CC1)CC(=O)N(CC(C)(C)C(=O)NCCc1cncnc1)C2 [SC-1184, Cis-3-(8-Dimethylamino-3-oxo-8-phenyl-2-azaspiro[4.5]decan-2-yl)-2,2-dimethyl-N-(2-pyrimidin-5-yl-ethyl)-propionamide] |  | 0.32 |  |
